Laboratory results from ChEMBL document CHEMBL1150707, “Isolation, structure, and synthesis of combretastatins A-1 and B-1, potent new inhibitors of microtubule assembly, derived from Combretum caffrum” (1987).
Values after ≈ are worked out from the molar mass of the structure shown. Active and inactive are the calls of the source. The calls are words filed in the database; no cut-off is given here.

How the values were obtained:
P388 [1] = test: In vivo cytotoxicity against mouse P388 cells; type: functional
[2] = Displacement of [3H]colchicine from tubulin after 10 mins relative to control; parameters: concentration or dose not given beside the values
[3] = Inhibition of microtubule assembly by turbidimetry
P388 [4] = test: In vivo cytotoxicity against mouse P388 cells assessed as increase in life extension at 2.75 to 11 mg/kg; type: functional; details: dose mg/kg 2.75-11

Structure (SMILES) | ED50 (P388 [1]) | Activity [2] | ID50 [3] | Activity (P388 [4])
COc1cc(/C=C\c2ccc(OC)c(O[Si](C)(C)C(C)(C)C)c2O[Si](C)(C)C(C)(C)C)cc(OC)c1OC | inactive | – | – | –
COc1cc(/C=C\c2ccc(OC)c(OC(C)=O)c2OC(C)=O)cc(OC)c1OC | 2.7 µg/mL (≈ 6.48 µM) | – | – | –
COc1cc2c(c(OC)c1OC)-c1cc3c(cc1[C@@H](OC(C)=O)C1COC(=O)[C@H]1C2)OCO3 (some centres not stated) | – | 49% | 6 µM | –
COc1ccc(CCc2cc(OC)c(OC)c(OC)c2)c(O)c1O | – | 13% | 3 µM | –
COc1ccc(C[C@@H](O)c2cc(OC)c(OC)c(OC)c2)cc1O | – | 34% | 11 µM | –
COc1cc2c(c(OC)c1OC)-c1ccc(OC)c(=O)cc1[C@@H](NC(C)=O)CC2 | – | – | 6 µM | –
COc1cc([C@@H]2c3cc4c(cc3[C@H](O)[C@H]3COC(=O)[C@H]23)OCO4)cc(OC)c1OC | – | 13% | 3 µM | –
COc1cc(/C=C/c2ccc(OC)c(OC(C)=O)c2OC(C)=O)cc(OC)c1OC | 12 µg/mL (≈ 28.8 µM) | – | – | –
COc1cc(/C=C/c2ccc(OC)c(O[Si](C)(C)C(C)(C)C)c2O[Si](C)(C)C(C)(C)C)cc(OC)c1OC | inactive | – | – | –
COc1ccc(/C=C\c2cc(OC)c(OC)c(OC)c2)c(O)c1O [COMBRETASTATIN A-1] | 0.99 µg/mL (≈ 2.98 µM) | 2.2% | 2 µM | 26%
